Assay results: patent publication US6900193B1, “Structural modification of 19-norprogesterone I: 17-α-substituted-11-β-substituted-4-aryl and 21-substituted 19-norpregnadienedione as new antiprogestational agents” (The United States of America as represented by the …, priority 1996, dated 2005)
“Also recorded” adds a separate entry of the source.

Key:
[1] = molecular target: T1, glucocorticoid receptor (estrogen-primed rabbit thymus) (Oryctolagus cuniculus, UniProt P59667); assay: Relative binding affinity, glucocorticoid receptor; details: for BINDING AFFINITY Glucocortic: Table 2; for BINDING AFFINITY Glucocortic / RELATIVE BINDING AFFINITY Glucocorticoid: estrogen-primed rabbit thymus, dexamethasone = 100%
T1 construct: preparation of cytosols for the progesterone and glucocorticoid receptor assays; from tissue; host or cells: thymus of estradiol-primed immature female New Zealand White rabbits (cytosol)
T1 sequence (P59667 1-772): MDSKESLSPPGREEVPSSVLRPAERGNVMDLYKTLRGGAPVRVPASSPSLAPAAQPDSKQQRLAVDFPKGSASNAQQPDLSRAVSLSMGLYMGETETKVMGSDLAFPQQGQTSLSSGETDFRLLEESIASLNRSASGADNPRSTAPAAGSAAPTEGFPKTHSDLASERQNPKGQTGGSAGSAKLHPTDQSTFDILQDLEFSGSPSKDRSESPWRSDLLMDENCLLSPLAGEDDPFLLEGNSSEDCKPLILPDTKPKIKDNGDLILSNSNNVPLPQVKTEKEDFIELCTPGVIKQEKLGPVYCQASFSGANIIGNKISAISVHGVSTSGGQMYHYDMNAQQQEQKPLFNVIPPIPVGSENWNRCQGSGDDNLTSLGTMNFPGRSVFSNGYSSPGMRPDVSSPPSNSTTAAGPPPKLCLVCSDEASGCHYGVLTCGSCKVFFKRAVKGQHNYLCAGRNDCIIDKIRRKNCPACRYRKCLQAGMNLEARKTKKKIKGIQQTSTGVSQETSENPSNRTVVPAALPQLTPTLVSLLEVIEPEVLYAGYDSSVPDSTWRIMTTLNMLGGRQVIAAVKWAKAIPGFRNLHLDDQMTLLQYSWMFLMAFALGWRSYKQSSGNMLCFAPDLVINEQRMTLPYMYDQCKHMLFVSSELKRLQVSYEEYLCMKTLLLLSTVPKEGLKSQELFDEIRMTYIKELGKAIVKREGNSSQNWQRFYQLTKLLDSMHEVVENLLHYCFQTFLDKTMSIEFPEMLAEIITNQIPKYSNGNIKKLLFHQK
Experimental: (§1) Relative Binding Affinities for the Progesterone and Glucocorticoid Receptors
(§2) Uteri and thymus glands were obtained from estradiol-primed immature female rabbits of the New Zealand White strain for preparation of cytosols for the progesterone and glucocorticoid receptor assays, respectively. Tissues were excised and immediately placed in ice cold TEGDM buffer (10 mM Tris, pH 7.4; 1.5 mM EDTA; 10% glycerol vol/vol/; 1 mM dithiothreitol [DTT]; and 20 mM sodium molybdate). The tissues were dissected free of connective tissue and fat, weighed and minced finely. Minced tissues were homogenized in 3 volumes TEGDM/gm with four 10 second bursts of a VirTis Cyclone set at half maximum speed with a 30 second cooling period (in ice) between bursts. Homogenates were centrifuged at 109,663 g at 4° C. for 1 hour to yield the soluble cytosol fiction. Aliquots of cytosol were snap frozen and stored at −75° C.
(§3) All binding assays were carried out at 2-6° C. for 16-18 hours. The following radioactive ligands were used: [1,2-^3H(N)]-progesterone (50.0 Ci/mmole) for the progesterone receptor (PR). […] For the progesterone receptor RBA assays 0.02 ml uterine cytosol or TEDGM buffer, 0.05 ml of various concentrations of test compounds or progesterone, 0.13 ml TEGDM buffer and 0.05 ml [^3H]-progesterone were added to duplicate tubes. For the glucocorticoid receptor RBA assays 0.1 ml thymus cytosol or TEDGM buffer, 0.05 ml of various concentrations of test compounds or dexamethasone, 0.05 ml TEGDM buffer and 0.05 ml [3H]-dexamethasone were added to duplicate tubes. For the estrogen receptor RBA assays 0.05 ml uterine cytosol, 0.1 ml TEGDM buffer, 0.05 ml of various concentrations of test compounds or estradiol and 0.05 ml [^3H]-estradiol were added to duplicate tubes. The concentrations of the test compounds, progesterone, dexamethasone and estradiol ranged from 0.05 to 100 nM and the concentrations of the competitors ranged from 0.5 to 500 nM. Total binding was measured at radioligand concentrations of 3.5 nM and nonspecific binding was measured in the presence of a 200-fold excess of unlabeled progesterone (PR), dexamethasone (GR) or diethylstilbestrol (ER), respectively.
(§4) In all incubations bound and free ligand were separated using dextra-coated charcoal (DCC). A 0.1 ml aliquot of DCC (0.5% charcoal/0.05% Dextran T-70) was added to each tube. The tubes were vortexed and incubated on ice for 10 minutes. Five-tenths ml TEG buffer (without DTT or molybdate) was then added to all tubes to improve supernatant recovery following centrifugation. The charcoal was pelleted by centrifugation at 2,100 g for 15 minutes at 4° C. The supernatants containing the [^3H]-steroid receptor complexes were decanted into vials containing 4 ml Optifluor (Packard Instrument Co.), vortexed, equilibrated in a liquid scintillation counter for 30 minutes and then counted for 2 minutes. This provided the quantity of receptor bound [^3H]-steroid at each competitor concentration.

[2] = molecular target: T2, progesterone receptor (estrogen-primed rabbit uterus) (Oryctolagus cuniculus, UniProt P06186); assay: Relative binding affinity, progesterone receptor; details: for BINDING AFFINITY Progester: Table 2; for BINDING AFFINITY Progester / RELATIVE BINDING AFFINITY Progesterone: estrogen-primed rabbit uterus, progesterone = 100%; for binding affinities compared with the standard, compound 69B: progesterone receptor implied (rabbit or human isoform A not specified)
T2 construct: preparation of cytosols for the progesterone and glucocorticoid receptor assays; from tissue; host or cells: uterus of estradiol-primed immature female New Zealand White rabbits (cytosol)
T2 sequence (P06186 1-930): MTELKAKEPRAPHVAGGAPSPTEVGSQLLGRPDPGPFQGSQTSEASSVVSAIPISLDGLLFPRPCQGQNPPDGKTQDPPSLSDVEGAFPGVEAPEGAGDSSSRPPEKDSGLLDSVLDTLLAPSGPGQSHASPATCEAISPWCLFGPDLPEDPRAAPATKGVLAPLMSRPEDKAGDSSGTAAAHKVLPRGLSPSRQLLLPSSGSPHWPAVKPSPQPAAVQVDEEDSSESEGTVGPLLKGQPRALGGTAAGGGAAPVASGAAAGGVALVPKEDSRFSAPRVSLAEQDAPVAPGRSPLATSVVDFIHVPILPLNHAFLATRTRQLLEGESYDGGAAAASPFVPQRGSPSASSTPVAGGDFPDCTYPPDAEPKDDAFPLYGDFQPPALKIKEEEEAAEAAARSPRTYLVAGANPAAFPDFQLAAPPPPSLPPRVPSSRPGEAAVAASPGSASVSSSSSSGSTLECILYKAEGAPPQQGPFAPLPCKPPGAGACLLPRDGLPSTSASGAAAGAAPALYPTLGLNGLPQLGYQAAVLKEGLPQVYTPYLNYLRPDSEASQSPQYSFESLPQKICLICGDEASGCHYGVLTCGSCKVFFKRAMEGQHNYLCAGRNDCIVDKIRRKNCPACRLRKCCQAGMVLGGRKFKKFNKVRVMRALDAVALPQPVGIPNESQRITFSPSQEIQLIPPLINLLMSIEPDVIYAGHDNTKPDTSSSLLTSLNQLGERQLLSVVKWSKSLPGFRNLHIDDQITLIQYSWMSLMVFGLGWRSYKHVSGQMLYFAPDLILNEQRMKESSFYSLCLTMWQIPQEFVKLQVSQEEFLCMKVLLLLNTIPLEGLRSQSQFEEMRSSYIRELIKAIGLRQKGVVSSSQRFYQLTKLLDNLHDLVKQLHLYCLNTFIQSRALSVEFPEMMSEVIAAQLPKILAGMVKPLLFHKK
Experimental: as §1, §2, §3, §4

[3] = tested on: progesterone-induced endometrial proliferation; assay: AntiClauberg test; format: in vivo, rabbit; set-up: key to ANTIPROGESTATIONAL Anti-Clauberg: relative oral potency vs. reference compound set to 100; details: for BIOLOGICAL ACTIVITY antiClauberg: Table 2; for BIOLOGICAL ACTIVITY antiClauberg / ANTIPROGESTATIONAL Anti-Clauberg: CDB-2914 = 100 (assigned); for ANTIPROGESTATIONAL Anti-Clauberg: relative potency; for antiClauberg / oral antiprogestational activity, in words: versus the standard 69B
Experimental: AntiClauberg Test (Clauberg, C., Zentr. Gynakol., 54:2757-2770 (1930)) Immature female rabbits of the New Zealand White breed (approx. 1 kg body weight) were maintained under standard laboratory conditions and received a subcutaneous injection of 5 μg estradiol in 10% ethanol/sesame oil daily for 6 consecutive days. Twenty-four hours after the last dose of estradiol (day 7) animals received progesterone by subcutaneous injection (0.8 mg/day) and the experimental compound in appropriate vehicle (usually 10% ethanol/sesame oil) orally or subcutaneously for five consecutive days. One group of rabbits received progesterone only. Twenty-four hours after the last dose all animals were sacrificed for removal of the uterus which was cleaned of all fat and connective tissue, weighed to the nearest 0.2 mg and placed in 10% neutral buffered formalin for subsequent histological processing. Five micron sections stained with hematoxylin and eosin (H&E) were evaluated microscopically for the degree of endometrial glandular proliferation according to the method of McPhail (McPhail, supra). The percent inhibition of endometrial proliferation at each dose level of the experimental compound was derived by comparison with the progesterone-stimulated animals alone.

| Compound | BINDING AFFINITY Glucocortic [1] | BINDING AFFINITY Progester [2] | BIOLOGICAL ACTIVITY antiClauberg ([3]; oral) | RELATIVE BINDING AFFINITY Glucocorticoid [1] | RELATIVE BINDING AFFINITY Progesterone [2] | binding affinities compared with the standard, compound 69B [2] | ANTIPROGESTATIONAL Anti-Clauberg ([3]; oral) | antiClauberg / oral antiprogestational activity, in words ([3]; oral) | also measured |
| --- | --- | --- | --- | --- | --- | --- | --- | --- | --- |
| 17α-Acetoxy-11β-[4-(N,N-diethylamino)phenyl]-21-thiocyanato-19-norpregna-4,9-diene-3,20-dione [Compound 138] | 14% | 63% | 57 | – | – | – | – | – | – |
| COCC(=O)[C@@]1(OC(C)=O)CC[C@H]2[C@@H]3CCC4=CC(=O)CCC4=C3[C@@H](c3ccc(N(C)C)cc3)C[C@@]21C [Compound 38, 17α-acetoxy-21-methoxy-11β-(4-N,N-dimethylaminophenyl)-19-norpregna-4,9-diene-3,20-dione] | – | – | – | 52% | 103% | binding affinities greater than that observed for the standard | 361 | greater activity than the standard | binding affinity for the glucocorticoid receptor, in words ([1]; rabbit thymus, versus CDB-2914 (69B) where stated): substantial reduction in glucocorticoid binding affinity; also recorded: low binding affinity; antiprogestational potency compared to the lead compound (CDB-2914), oral antiClauberg test ([3]; oral, versus CDB-2914): 3.61 times |
| CC(=O)O[C@]1(C(=O)COC(=O)CCC2CCCC2)CC[C@H]2[C@@H]3CCC4=CC(=O)CCC4=C3[C@@H](c3ccc(N(C)C)cc3)C[C@@]21C [Compound 40, 17α-acetoxy-21-(3′-cyclopentylpropionyloxy)-11β-[4-(N,N-dimethylamino)phenyl]-19-norpregnadiene-3,20 dione] | – | – | – | 37% | 74% | – | 155 | greater activity than the standard | more potent in the antiClauberg test than the lead compound ([3]; versus CDB-2914): about 50% |
| CCOCC(=O)[C@@]1(OC(C)=O)CCC2C3CCC4=CC(=O)CCC4=C3C(c3ccc(N(C)C)cc3)C[C@@]21C (stereo partly drawn) [Compound 46, 17α-acetoxy-21-ethoxy-11β-[4-(N,N-dimethylamino)phenyl]-9-norpregna-4,9-diene-3,20-dione] | – | – | – | 46% | 83% | – | 130-210 | greater activity than the standard | – |
| CC(=O)C1(OC=O)CCC2C3CCC4=CC(=O)CCC4=C3C(c3ccc(N(C)C)cc3)CC21C (stereo not drawn) [Compound 69A, 17α-formyloxy-11β-[4-(N,N-dimethylamino)phenyl]-19-norpregna-4,9-diene-3,20-dione] | 30% | 164% | 97 | – | – | binding affinities greater than that observed for the standard | – | – | – |
| CC(=O)O[C@]1(C(C)=O)CC[C@H]2[C@@H]3CCC4=CC(=O)CCC4=C3[C@@H](c3ccc(N4CCCC4)cc3)C[C@@]21C [Compound 70, 17α-Acetoxy-11β-[4-(N-pyrrolidino)phenyl]-19-norpregna-4,9-diene-3,20-dione] | – | 79% | ˜25 | – | – | – | – | – | – |
| CC(=O)OC1(C(C)=O)CCC2C3CCC4=CC(=O)CCC4=C3C(c3ccc(C(C)=O)cc3)CC21C (stereo not drawn) [Compound 73, 17α-Acetoxy-11β-(4-acetylphenyl)-19-norpregna-4,9-diene-3,20-dione] | – | – | – | – | – | binding affinities greater than that observed for the standard | – | – | – |
| COCC(=O)C1(OC)CCC2C3CCC4=CC(=O)CCC4=C3C(c3ccc(N4CCCC4)cc3)CC21C (stereo not drawn) [Compound 113b] | 34% | 59% | – | – | – | – | – | – | – |
| COCC(=O)C1(OC)CCC2C3CCC4=CC(=O)CCC4=C3C(c3ccc(C(C)=O)cc3)CC21C (stereo not drawn) [Compound 113d, 17α,21-Dimethoxy-11β-(4-acetylphenyl)-19-norpregna-4,9-diene-3,20-dione] | – | – | – | – | – | binding affinities greater than that observed for the standard | – | – | – |
| COCC(=O)C1(O)CCC2C3CCC4=CC(=O)CCC4=C3C(c3ccc(C(C)=O)cc3)CC21C (stereo not drawn) [Compound 122b, 17α-Hydroxy-11β-(4-acetylphenyl)-21-methoxy-19-norpregna-4,9-diene-3,20-dione] | – | – | – | – | – | binding affinities greater than that observed for the standard | – | – | – |
